US20240116985A1, “STAPLED PEPTIDES AND METHODS THEREOF” (priority 2020, published 2024)
Where two headings read alike, the source gives them in different places.

What was measured:
[1] = molecular target: T1, full-length beta-Catenin (Uniprot ID P35222) (Homo sapiens, UniProt P35222); assay: Fluorescence polarization IC50 (beta-catenin / 5FAM-TCF4 10-53 competition); format: binding; conditions: fluorescence polarization; read-out: beta-Catenin FP IC50
T1 construct: 10 nM full-length beta-Catenin (Uniprot ID P35222)
T1 sequence (P35222 1-781): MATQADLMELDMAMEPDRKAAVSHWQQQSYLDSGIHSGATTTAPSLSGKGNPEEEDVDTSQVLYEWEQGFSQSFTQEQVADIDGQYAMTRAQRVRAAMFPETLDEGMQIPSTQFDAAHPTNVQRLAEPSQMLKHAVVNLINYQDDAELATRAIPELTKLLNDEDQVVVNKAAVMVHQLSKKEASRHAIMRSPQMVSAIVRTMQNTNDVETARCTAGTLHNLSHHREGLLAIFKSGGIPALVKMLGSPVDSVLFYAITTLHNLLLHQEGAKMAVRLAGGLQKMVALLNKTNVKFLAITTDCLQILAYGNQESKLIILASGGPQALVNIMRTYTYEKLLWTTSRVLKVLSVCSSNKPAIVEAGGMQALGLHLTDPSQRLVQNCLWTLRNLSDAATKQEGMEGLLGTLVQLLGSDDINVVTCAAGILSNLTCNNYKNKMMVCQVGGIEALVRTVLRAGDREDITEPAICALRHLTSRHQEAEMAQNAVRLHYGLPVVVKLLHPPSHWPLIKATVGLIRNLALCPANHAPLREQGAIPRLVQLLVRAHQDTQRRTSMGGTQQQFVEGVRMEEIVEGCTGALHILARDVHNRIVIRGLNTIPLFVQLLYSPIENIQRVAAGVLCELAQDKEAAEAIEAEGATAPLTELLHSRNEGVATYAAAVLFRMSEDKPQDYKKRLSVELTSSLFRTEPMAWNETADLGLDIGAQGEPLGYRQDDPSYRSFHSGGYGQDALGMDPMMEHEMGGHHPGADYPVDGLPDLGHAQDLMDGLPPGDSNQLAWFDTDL

[2] = molecular target: T2, beta-catenin/TCF4 engagement (Homo sapiens, UniProt P35222); assay: Nano-BRET target engagement assay (B-cat-Halo & TCF4-Luc in HEK293 cells); format: cell-based; conditions: read-out: NanoBRET Abs IC50
T2 construct: expressed in transfected cells; host or cells: HEK293
T2 sequence (P35222 1-781): T1 sequence (P35222 1-781)

SMILES | IC50 [1] | IC50 ([2]; absolute IC50) | IC50 [2]
CC(=O)N1CCC[C@]12CC=CCCCC1(CCCC=CCCCOC(=O)N3CC[C@@](C(=O)N[C@@H](Cc4ccsc4)C(=O)N[C@@H](Cc4csc5ccccc45)C(=O)N[C@@H](CCC(N)=O)C(N)=O)(C3)NC(=O)[C@H](CC(C)C)NC(=O)[C@H](Cc3ccccc3)NC(=O)[C@H](C)NC(=O)[C@H](C)NC(=O)[C@H](CNc3ncccc3C(=O)O)NC(=O)[C@H](CC(=O)O)NC1=O)NC(=O)[C@H](CC(C)(C)C)NC(=O)[C@H](CC(=O)O)NC2=O (stereo partly drawn) [I-1845, Ac-PL3-Asp-Npg-B5-Asp-[2Nic]Dap-Ala-Ala-Phe-Leu-PyrS2-3Thi-BztA-Gln-NH2] | 30 nM | 6300 nM | –
CC(=O)N1CC2CC1C(=O)N[C@@H](CC(=O)O)C(=O)N[C@@H](CC(C)(C)C)C(=O)NC1(CCCC=CCCCOC(=O)N3CC[C@@](C(=O)N[C@@H](Cc4ccccc4Cl)C(=O)N[C@@H](Cc4csc5ccccc45)C(=O)N[C@@H](CCC(N)=O)C(N)=O)(C3)NC(=O)[C@H]([C@@H](C)O)NC(=O)[C@H](Cc3ccccc3)NC(=O)[C@H](C)NC(=O)[C@H](C)NC(=O)[C@H](CN(CC(=O)O)CC(F)(F)F)NC(=O)[C@H](CC(=O)O)NC1=O)CCCC=CCCC(=O)O2 (stereo partly drawn) [I-1846, Ac-HyPEs5-Asp-Npg-B5-Asp-TfeGA-Ala-Ala-Phe-Thr-PyrS2-2C1F-BztA-Gln-NH2] | 38 nM | 29800 nM | –
CC(=O)N1CCC[C@]12CC=CCCCC1(CCCC=CCCCOC(=O)N3CC[C@@](C(=O)N[C@@H](Cc4ccccc4Cl)C(=O)N[C@@H](Cc4csc5ccccc45)C(=O)N[C@@H](CO)C(N)=O)(C3)NC(=O)[C@H](C)NC(=O)[C@H](Cc3ccccc3)NC(=O)[C@H](C)NC(=O)[C@H](C)NC(=O)[C@H](Cc3cccc(C(=O)O)c3)NC(=O)[C@H](CC(=O)O)NC1=O)NC(=O)[C@H](CC(C)(C)C)NC(=O)[C@H](CC(=O)O)NC2=O (stereo partly drawn) [I-1849, Ac-PL3-Asp-Npg-B5-Asp-3COOHF-Ala-Ala-Phe-Ala-PyrS2-2C1F-BztA-Ser-NH2] | 19 nM | – | 8800 nM
CC(=O)N1CCC[C@]12CC=CCCCC1(CCCC=CCCCOC(=O)N3CC[C@@](C(=O)N[C@@H](Cc4ccccc4Cl)C(=O)N[C@@H](Cc4csc5ccccc45)C(=O)N[C@@H](CO)C(N)=O)(C3)NC(=O)[C@H](C(C)C)NC(=O)[C@H](Cc3ccccc3)NC(=O)[C@H](C)NC(=O)[C@H](C)NC(=O)[C@H](Cc3cccc(C(=O)O)c3)NC(=O)[C@H](CC(=O)O)NC1=O)NC(=O)[C@H](CC(C)(C)C)NC(=O)[C@H](CC(=O)O)NC2=O (stereo partly drawn) [I-1850, Ac-PL3-Asp-Npg-B5-Asp-3COOHF-Ala-Ala-Phe-Val-PyrS2-2C1F-BztA-Ser-NH2] | 17 nM | – | 3800 nM
CC(=O)N1CCC[C@]12CC=CCCCC1(CCCC=CCCCOC(=O)N3CC[C@@](C(=O)N[C@@H](Cc4ccccc4Cl)C(=O)N[C@@H](Cc4csc5ccccc45)C(=O)N[C@@H](C)C(N)=O)(C3)NC(=O)[C@H](CC(C)C)NC(=O)[C@H](Cc3ccccc3)NC(=O)[C@H](C)NC(=O)[C@H](C)NC(=O)[C@H](Cc3cccc(C(=O)O)c3)NC(=O)[C@H](CC(=O)O)NC1=O)NC(=O)[C@H](CC(C)(C)C)NC(=O)[C@H](CC(=O)O)NC2=O (stereo partly drawn) [I-1851, Ac-PL3-Asp-Npg-B5-Asp-3COOHF-Ala-Ala-Phe-Leu-PyrS2-2C1F-BztA-Ala-NH2] | 25 nM | – | 3800 nM
CC(=O)N1CCC[C@]12CC=CCCCC1(CCCC=CCCCOC(=O)N3CC[C@@](C(=O)N[C@@H](Cc4ccccc4Cl)C(=O)N[C@@H](Cc4csc5ccccc45)C(N)=O)(C3)NC(=O)[C@H](CC(C)C)NC(=O)[C@H](Cc3ccccc3)NC(=O)[C@H](C)NC(=O)[C@H](C)NC(=O)[C@H](Cc3cccc(C(=O)O)c3)NC(=O)[C@H](CC(=O)O)NC1=O)NC(=O)[C@H](CC(C)(C)C)NC(=O)[C@H](CC(=O)O)NC2=O (stereo partly drawn) [I-1852, Ac-PL3-Asp-Npg-B5-Asp-3COOHF-Ala-Ala-Phe-Leu-PyrS2-2C1F-BztA-NH2] | 48 nM | – | 4900 nM
CC(=O)N1CCC[C@]12CC=CCCCC1(CCCC=CCCCOC(=O)N3CC[C@@](C(=O)N[C@@H](Cc4ccccc4Cl)C(=O)N[C@@H](Cc4csc5ccccc45)C(=O)N[C@@H](CO)C(N)=O)(C3)NC(=O)[C@H](CC(C)C)NC(=O)[C@H](Cc3ccccc3)NC(=O)[C@H](C)NC(=O)[C@H](C)NC(=O)[C@H](Cc3cccc(C(=O)O)c3)NC(=O)[C@H](CC(=O)O)NC1=O)NC(=O)[C@H](CC(C)(C)C)NC(=O)[C@H](CC(N)=O)NC2=O (stereo partly drawn) [I-1853, Ac-PL3-Asn-Npg-B5-Asp-3COOHF-Ala-Ala-Phe-Leu-PyrS2-2C1F-BztA-Ser-NH2] | 114 nM | – | 16300 nM
CC(=O)N1CCC[C@]12CC=CCCCC1(CCCC=CCCCOC(=O)N3CC[C@@](C(=O)N[C@@H](Cc4ccsc4)C(=O)N[C@@H](Cc4csc5ccccc45)C(=O)N[C@@H](CCC(N)=O)C(N)=O)(C3)NC(=O)[C@H](Cn3cc(CN(C)C)nn3)NC(=O)[C@H](Cc3ccccc3)NC(=O)[C@H](C)NC(=O)[C@H](C)NC(=O)[C@H](CN(CC(=O)O)CC(F)(F)F)NC(=O)[C@H](CC(=O)O)NC1=O)NC(=O)[C@H](CC(C)(C)C)NC(=O)[C@H](CC(=O)O)NC2=O (stereo partly drawn) [I-1861, Ac-PL3-Asp-Npg-B5-Asp-TfeGA-Ala-Ala-Phe-[CH2NMe2]TriAzDap-PyrS2-3Thi-BztA-Gln-NH2] | 14 nM | – | 37300 nM
CC(=O)N1CCC[C@]12CC=CCCCC1(CCCC=CCCCOC(=O)N3CC[C@@](C(=O)N[C@@H](Cc4ccsc4)C(=O)N[C@@H](Cc4csc5ccccc45)C(=O)N[C@@H](CCC(N)=O)C(N)=O)(C3)NC(=O)[C@H](Cn3cc(CN(C)C)nn3)NC(=O)[C@H](Cc3ccccc3)NC(=O)[C@H](C)NC(=O)[C@H](C)NC(=O)[C@H](CN(CC(=O)O)CC(F)(F)F)NC(=O)[C@H](CC(=O)O)NC1=O)NC(=O)[C@H](CC(C)(C)C)NC(=O)[C@H](CC(=O)O)NC2=O (stereo partly drawn) [I-1862, Ac-PL3-Asp-Npg-B5-Asp-TfeGA-Ala-Ala-Phe-[CH2NMe2]TriAzDap-PyrS2-3Thi-BztA-Gln-NH2] | 10 nM | – | 19300 nM
CC(=O)N1CCC[C@]12CC=CCCCC1(CCCC=CCCCOC(=O)N3CC[C@@](C(=O)N[C@@H](Cc4ccsc4)C(=O)N[C@@H](Cc4csc5ccccc45)C(=O)N[C@@H](CCC(N)=O)C(N)=O)(C3)NC(=O)[C@H](Cn3cc(CN4CCNCC4)nn3)NC(=O)[C@H](Cc3ccccc3)NC(=O)[C@H](C)NC(=O)[C@H](C)NC(=O)[C@H](CN(CC(=O)O)CC(F)(F)F)NC(=O)[C@H](CC(=O)O)NC1=O)NC(=O)[C@H](CC(C)(C)C)NC(=O)[C@H](CC(=O)O)NC2=O (stereo partly drawn) [I-1864, Ac-PL3-Asp-Npg-B5-Asp-TfeGA-Ala-Ala-Phe-[CH2Ppz]TriAzDap-PyrS2-3Thi-BztA-Gln-NH2] | 14 nM | – | > 20000 nM
CC(=O)N1CCC[C@]12CC=CCCCC1(CCCC=CCCCOC(=O)N3CC[C@@](C(=O)N[C@@H](Cc4ccsc4)C(=O)N[C@@H](Cc4csc5ccccc45)C(=O)N[C@@H](CCC(N)=O)C(N)=O)(C3)NC(=O)[C@H](Cn3cc(CN4CCOCC4)nn3)NC(=O)[C@H](Cc3ccccc3)NC(=O)[C@H](C)NC(=O)[C@H](C)NC(=O)[C@H](CN(CC(=O)O)CC(F)(F)F)NC(=O)[C@H](CC(=O)O)NC1=O)NC(=O)[C@H](CC(C)(C)C)NC(=O)[C@H](CC(=O)O)NC2=O (stereo partly drawn) [I-1865, Ac-PL3-Asp-Npg-B5-Asp-TfeGA-Ala-Ala-Phe-[MorphCH2]TriAzDap-PyrS2-3Thi-BztA-Gln-NH2] | 10 nM | – | > 20000 nM
CC(=O)N1CCC[C@]12CC=CCCCC1(CCCC=CCCCOC(=O)N3CC[C@@](C(=O)N[C@@H](Cc4ccsc4)C(=O)N[C@@H](Cc4csc5ccccc45)C(=O)N[C@@H](CCC(N)=O)C(N)=O)(C3)NC(=O)[C@H](Cn3cc(CN4CCOCC4)nn3)NC(=O)[C@H](Cc3ccccc3)NC(=O)[C@H](C)NC(=O)[C@H](C)NC(=O)[C@H](CN(CC(=O)O)CC(F)(F)F)NC(=O)[C@H](CC(=O)O)NC1=O)NC(=O)[C@H](CC(C)(C)C)NC(=O)[C@H](CC(=O)O)NC2=O (stereo partly drawn) [I-1866, Ac-PL3-Asp-Npg-B5-Asp-TfeGA-Ala-Ala-Phe-[MorphCH2]TriAzDap-PyrS2-3Thi-BztA-Gln-NH2] | 26 nM | – | > 20000 nM
CC(=O)N1CCC[C@]12CC=CCCCC1(CCCC=CCCCOC(=O)N3CC[C@@](C(=O)N[C@@H](Cc4ccsc4)C(=O)N[C@@H](Cc4csc5ccccc45)C(=O)N[C@@H](CCC(N)=O)C(N)=O)(C3)NC(=O)[C@H](Cn3cc(CN4CCOCC4)nn3)NC(=O)[C@H](Cc3ccccc3)NC(=O)[C@H](C)NC(=O)[C@H](C)NC(=O)[C@H](CN(CC(=O)O)CC(F)(F)F)NC(=O)[C@H](CC(=O)O)NC1=O)NC(=O)[C@H](CC(C)(C)C)NC(=O)[C@H](CC(=O)O)NC2=O (stereo partly drawn) [I-1867, Ac-PL3-Asp-Npg-B5-Asp-TfeGA-Ala-Ala-Phe-[MorphCH2]TriAzDap-PyrS2-3Thi-BztA-Gln-NH2] | 7 nM | – | 16400 nM
